Assay [1] can be described thus: Growth inhibition of human DLD1 cells assessed as inhibition of cell viability after 72 hrs by MTT assay. The assay is classed as functional, cell-based. The note with it: DLD-1, 72 h. A general note: Formazan colour is commonly taken as a measure of viable cells.
Another assay deals with HeLa. Put plainly: Growth inhibition of human HeLa cells assessed as inhibition of cell viability after 72 hrs by MTT assay. The assay is classed as functional, cell-based.

By IC50 is commonly meant the concentration at which inhibition is half-maximal.

As for `CC(=O)O[C@H]1CO[C@@H](O[C@@H]2C[C@]3(C)[C@H](CC[C@@H]4[C@@]5(C)CC[C@H](O)C(C)(C)[C@@H]5[C@@H](O)C[C@]43C)[C@@]3(C)C[C@@H](O[C@@H]4O[C@H](CO)[C@@H](O)[C@H](O)[C@H]4O)[C@H](O)C(C)(C)[C@H]23)[C@H](O)[C@H]1O`, the IC50 (in assay [1]; with HeLa) was 52 µM each time.

For `COc1cc([C@@H]2c3cc4c(cc3[C@@H](O[C@@H]3O[C@@H]5CO[C@@H](C)O[C@H]5[C@H](O)[C@H]3O)[C@H]3COC(=O)[C@H]23)OCO4)cc(OC)c1O` [ETOPOSIDE], the values for the IC50 (in assay [1]; in the assay on HeLa) were 20 µM and 16 µM, respectively.
